Results on 12 molecules are retold here after ChEMBL document CHEMBL3734717, “New INH-pyrazole analogs: Design, synthesis and evaluation of antitubercular and antibacterial activity” (Bioorg Med Chem Lett, 2015).

Each structure is given as a SMILES string. ≈ marks a conversion by molar mass, not a printed value. Calls of active or inactive are those of the source. No cut-off for these calls is given here.

Common to all, as to format: functional
Assay [1] concerns Staphylococcus aureus. In words: Antibacterial activity against Staphylococcus aureus assessed as zone of inhibition at 75 ug/ml incubated for 18-24 hrs at 37 degC by disc diffusion method. Particulars: read-out: IZ. On the technique in general: A growth-free zone around the sample is the usual read-out of agar diffusion tests.
The subject of assay [2] is Escherichia coli. The assay is described as follows: Antibacterial activity against Escherichia coli assessed as zone of inhibition at 75 ug/ml incubated for 18-24 hrs at 37 degC by disc diffusion method. Particulars: for zone of inhibition at 75 µg/mL: read-out: IZ.
The test system of assay [3] is Staphylococcus aureus. In words: Antibacterial activity against Staphylococcus aureus assessed as zone of inhibition at 50 ug/ml incubated for 18-24 hrs at 37 degC by disc diffusion method. To be noted: read-out: IZ.
Assay [4] relates to Mycobacterium tuberculosis. In words: Antitubercular activity against Mycobacterium tuberculosis H37Rv assessed as inhibition of cell growth after 5 days by microplate alamar blue assay. Particulars: 120 h. On the technique in general: Resazurin is reduced to fluorescent resorufin, in cell work by metabolically active cells.
Assay [5] relates to Pseudomonas aeruginosa. In words: Antibacterial activity against Pseudomonas aeruginosa assessed as zone of inhibition at 50 ug/ml incubated for 18-24 hrs at 37 degC by disc diffusion method. Particulars: for zone of inhibition at 50 µg/mL: read-out: IZ.
The test system of assay [6] is Pseudomonas aeruginosa. The assay is described as follows: Antibacterial activity against Pseudomonas aeruginosa assessed as zone of inhibition at 75 ug/ml incubated for 18-24 hrs at 37 degC by disc diffusion method. To be noted: for zone of inhibition at 75 µg/mL: read-out: IZ.
For assay [7], the system named is Escherichia coli. The assay is described as follows: Antibacterial activity against Escherichia coli assessed as zone of inhibition at 50 ug/ml incubated for 18-24 hrs at 37 degC by disc diffusion method. To be noted: for zone of inhibition at 50 µg/mL: read-out: IZ.

`O=C(c1ccccc1)N(/N=C/c1c[nH]nc1-c1ccc(Cl)cc1)C(=O)c1ccncc1`: the zone of inhibition at 75 µg/mL in assay [1] is 11 mm; in assay [6] it was 12 mm. Moreover, the “inhibition zone (IZ)” value in assay [2] and in assay [7] was “inactive” each time. The zone of inhibition at 50 µg/mL in assay [3] is 9 mm; in assay [5], 10 mm. The MIC in assay [4] is 116 µM (≈ 50 µg/mL).

Turning to `COc1ccc(C(=O)N(/N=C/c2c[nH]nc2-c2ccc(Cl)cc2)C(=O)c2ccncc2)cc1OC`, the figures for the zone of inhibition at 75 µg/mL in assay [1], in assay [2] and in assay [6] were 10 mm, 9 mm and 11 mm, respectively. Also, the zone of inhibition at 50 µg/mL in assay [3] turned out to be 8 mm; in assay [5] it was 9 mm; in assay [7], 6 mm. Besides, in assay [4], the MIC amounted to 102 µM (≈ 50 µg/mL).

Consider `COc1ccc(C(=O)N(/N=C/c2c[nH]nc2-c2cccc(Cl)c2)C(=O)c2ccncc2)cc1OC`, for which the zone of inhibition at 75 µg/mL in assay [1] turned out to be 10 mm. The “inhibition zone (IZ)” value in assay [2], in assay [5], in assay [6] and in assay [7] was “inactive” throughout. In assay [3], the zone of inhibition at 50 µg/mL turned out to be 8 mm. Moreover, the MIC in assay [4] was 102 µM (≈ 50 µg/mL).

As for `NNC(=O)c1ccncc1` [ISONIAZID], in assay [4], the MIC is 0.7 µM (≈ 0.096 µg/mL).

`Cc1ccc(C(=O)N(/N=C/c2c[nH]nc2-c2ccc(Cl)cc2)C(=O)c2ccncc2)cc1`: the zone of inhibition at 75 µg/mL in assay [1] stood at 20 mm; in assay [2] it was 14 mm; in assay [6], 15 mm. The zone of inhibition at 50 µg/mL in assay [3] worked out at 17 mm; in assay [5], 11 mm; in assay [7], 12 mm. Further, the minimum inhibitory concentration (MIC) in assay [4] came out at 113 µM (≈ 50 µg/mL).

For the molecule `O=C(c1ccncc1)N(/N=C/c1c[nH]nc1-c1ccc(Cl)cc1)C(=O)c1ccc([N+](=O)[O-])cc1`, the zone of inhibition at 75 µg/mL in assay [1] is 19 mm; in assay [2], 20 mm; in assay [6], 17 mm. Besides, the zone of inhibition at 50 µg/mL came out at 17 mm in assay [3], 15 mm in assay [5] and 18 mm in assay [7]. Besides, the minimal inhibitory concentration (MIC) in assay [4] amounted to 26.3 µM (≈ 12.5 µg/mL).

As to `O=C(c1ccncc1)N(/N=C/c1c[nH]nc1-c1ccc(Cl)cc1)C(=O)c1ccccc1Cl`, the zone of inhibition at 75 µg/mL in assay [1] was determined as 18 mm; in assay [2], 19 mm; in assay [6] it was 19 mm. The zone of inhibition at 50 µg/mL in assay [3] came out at 14 mm; in assay [5], 15 mm; in assay [7], 16 mm. For the same molecule, the MIC in assay [4] turned out to be 53.8 µM (≈ 25 µg/mL).

As for `NC(=O)c1cnccn1` [PYRAZINAMIDE], the MIC in assay [4] was 406 µM (≈ 50 µg/mL).

For `O=C(c1ccncc1)N(/N=C/c1c[nH]nc1-c1cccc(Cl)c1)C(=O)c1ccc(CCl)cc1`, the zone of inhibition at 75 µg/mL is 17 mm in assay [1], 16 mm in assay [2] and 20 mm in assay [6]. For the same molecule, the figures for the zone of inhibition at 50 µg/mL in assay [3], in assay [5] and in assay [7] were 14 mm, 18 mm and 14 mm, respectively. Besides, in assay [4], the MIC is 52.3 µM (≈ 25 µg/mL).

Take `Cc1ccc(C(=O)N(/N=C/c2c[nH]nc2-c2cccc(Cl)c2)C(=O)c2ccncc2)cc1`: the zone of inhibition at 75 µg/mL in assay [1] was 12 mm; in assay [2] it was 11 mm; in assay [6], 10 mm. The zone of inhibition at 50 µg/mL came out at 10 mm in assay [3], 8 mm in assay [5] and 8 mm in assay [7]. Besides, in assay [4], the minimal inhibitory concentration (MIC) was found to be 113 µM (≈ 50 µg/mL).

Regarding `O=C(O)c1cn(C2CC2)c2cc(N3CCNCC3)c(F)cc2c1=O` [CIPROFLOXACIN], the zone of inhibition at 75 µg/mL in assay [1] is 26 mm; in assay [2], 32 mm; in assay [6], 21 mm. In addition, the zone of inhibition at 50 µg/mL in assay [3] came out at 21 mm; in assay [5] it was 18 mm; in assay [7], 27 mm.

In the case of `CC[C@@H](CO)NCCN[C@@H](CC)CO` [ETHAMBUTOL], in assay [4], the MIC amounted to 15.3 µM (≈ 3.13 µg/mL).

The MIC is the lowest concentration that inhibits growth of the organism.
